Results as given in US9233978B2, “6-fused heteroaryldihydropyrimidines for the treatment and prophylaxis of hepatitis B virus infection” (Hoffmann-La Roche Inc., priority 2014, dated 2016).
≈ marks a conversion by molar mass, not a printed value.

How the values were obtained:
[1] = test system: HBV; assay: Anti-HBV activity in vitro, HepG2.2.15 cells, extracellular HBV DNA by qPCR; type: cell-based; conditions: Hepatitis B virus, HepG2.2.15, 120 h, HepG2.2.15 cells; HBV replication inhibited by 50%, extracellular HBV DNA by qPCR; five days after compound treatment; read-out: EC50
Text: HepG2.2.15 and HepDE19 are stably-transfected cell lines containing the HBV genome. Both cell lines are derived from the hepatoblastoma cell line Hep G2 (American Type Culture Collection, ATCC® HB-8065™) by the published procedures described in references: MA Selles et al. Proc. Natl. Acad. Sci. USA 1987, 84, 1005-1009 and H Guo et al. Journal of Virology 2007, 81, 12472-12484, respectively. Both cell lines were maintained in Dulbecco's modified Eagle's medium (DMEM)-F12 medium supplemented with 10% fetal bovine serum, 100 U/mL penicillin, 100 μg/mL streptomycin, and 0.5 mg/mL of G418.
While HepG2.2.15 cells constitutively support HBV replication and production of virus particles, HepDE19 cells are inducible by tetracycline. Addition of 1 μg/mL tetracycline in culture medium suppresses HBV replication in HepDE19 cells, whereas switching to tetracycline-free medium resumes this process.
HepG2.2.15 cells were seeded into 96-well plates (3×10^4 cells in 100 μL media per well) and incubated overnight at 37° C. The test compounds were serially half-log diluted in DMSO, then diluted 100 times in culture media. 100 μL of diluted compounds were added into the plates to reach 0.5% final concentration of DMSO in every well. Five days after compound treatment, culture supernatant was collected for further analysis.
For quantitative PCR detection of extracellular HBV DNA, 100 μL of culture supernatant was collected and processed in MagNA Pure 96 Nucleic Acid Purification System (Roche Applied Science) for viral DNA extraction. The extracted samples were subjected to HBV DNA quantification by qPCR.

[2] = Lysa solubility; type: physicochemical; conditions: 0.05 M phosphate buffer (pH 6.5); for solubility thermodynamic: phosphate buffer, pH 6.5, aqueous buffer, thermodynamic from solid
Procedure: Samples were prepared in duplicate from 10 mM DMSO stock solutions. After evaporation of DMSO with a centrifugal vacuum evaporator, the residue was solved in 0.05 M phosphate buffer (pH 6.5), stirred for one hour and shook for two hours. After one night, the solution was filtered using a microtiter filter plate. Then the filtrate and its 1/10 dilution were analyzed by direct UV measurement or by HPLC-UV. […] The results were in μg/mL. In case the percentage of sample measured in solution after evaporation divided by the calculated maximum of sample amount was over 80%, the solubility was reported as higher than this value.

[3] = Human microsomal metabolic stability; type: in vitro ADME; conditions: human microsomes 0.5 mg/mL, 1 μM test compound, NADPH, 37° C., pH 7.4, 0-30 minutes
Procedure: Human Microsomes (BD Gentest) were preincubated with test compound for 10 minutes at 37° C. in 100 mM phosphate buffer, pH 7.4. The reactions were initiated by adding NADPH or NADPH regenerating system to give a final incubation volume of 400 μL. For NADPH system, the final incubations contained 1 μM test compound, 0.5 mg/mL liver microsomal protein, 1 mM NADPH in 100 mM phosphate buffer, pH 7.4. For the NADPH regenerating system, the final incubations contained 1 μM test compound, 0.5 mg/mL liver microsomal protein, 3 mM glucose 6-phosphate, 1 mM NADP, 3 mM MgCl2 and 0.05 mg/mL glucose 6-phosphate dehydrogenase in 100 mM phosphate buffer, pH 7.4. After incubation times of 0, 3, 6, 9, 15 and 30 minutes at 37° C., 1 sample was obtained from each time point and 50 μL of each sample was removed and transferred to 150 μL of methanol solution which was maintained at 4° C. and contained 2 μM tolbutamide as internal standard. Following precipitation and centrifugation, the amount of compound remaining in the samples were determined by LC-MS/MS. Controls of no NADPH or no NADPH regenerating system at zero and 30 minutes were also prepared and analyzed.

## COC(=O)C1=C(CN2CCN3C(=O)N(CC(C)(C)C(=O)O)C[C@@H]3C2)NC(c2nccs2)=N[C@H]1c1ccccc1Cl [Example 74, 3-[(8aS)-7-[[(4R)-4-(2-chlorophenyl)-5-methoxycarbonyl-2-thiazol-2-yl-1,4-dihydropyrimidin-6-yl]methyl]-3-oxo-5,6,8,8a-tetrahydro-1H-imidazo[1,5-a]pyrazin-2-yl]-2,2-dimethyl-propanoic acid]
[1]
  EC50: 36 nM
[2]
  solubility thermodynamic: > 716 µg/mL
[3]
  Human Microsomal Clearance: 1.0 mL/min/kg

## COC(=O)C1=C(CN2CCN3C(=O)N(C(C)C)CC3(CC(=O)O)C2)NC(c2nccs2)=N[C@H]1c1ccc(F)cc1Cl (stereo partly drawn) [Example 31, 2-[7-[[(4R)-4-(2-chloro-4-fluoro-phenyl)-5-methoxycarbonyl-2-thiazol-2-yl-1,4-dihydropyrimidin-6-yl]methyl]-2-isopropyl-3-oxo-1,5,6,8-tetrahydroimidazo[1,5-a]pyrazin-8a-yl]acetic acid]
[1]
  EC50: 100 nM
[2]
  solubility thermodynamic: > 775 µg/mL
[3]
  Human Microsomal Clearance: 0.3 mL/min/kg

## COC(=O)C1=C(CN2CCN3C(=O)N(C(C)(C)CC(=O)O)C[C@@H]3C2)NC(c2nccs2)=N[C@H]1c1ccc(F)cc1Cl [Example 33, 3-[(8aS)-7-[[(4R)-4-(2-chloro-4-fluoro-phenyl)-5-methoxycarbonyl-2-thiazol-2-yl-1,4-dihydropyrimidin-6-yl]methyl]-3-oxo-5,6,8,8a-tetrahydro-1H-imidazo[1,5-a]pyrazin-2-yl]-3-methyl-butanoic acid]
[1]
  EC50: 30 nM
[2]
  solubility thermodynamic: > 748 µg/mL
[3]
  Human Microsomal Clearance: 2.5 mL/min/kg

## COC(=O)C1=C(CN2CCN3C(=O)N(C(C)(C)CC(=O)O)C[C@@H]3C2)NC(c2nccs2)=N[C@H]1c1ccc(F)c(F)c1C [Example 37, 3-[(8aS)-7-[[(4S)-4-(3,4-difluoro-2-methyl-phenyl)-5-methoxycarbonyl-2-thiazol-2-yl-1,4-dihydropyrimidin-6-yl]methyl]-3-oxo-5,6,8,8a-tetrahydro-1H-imidazo[1,5-a]pyrazin-2-yl]-3-methyl-butanoic acid]
[1]
  EC50: 17 nM
[2]
  solubility thermodynamic: 422 µg/mL (≈ 700 µM)
[3]
  Human Microsomal Clearance: 2.5 mL/min/kg

## CCOC(=O)C1=C(CN2CCN3C(=O)N(CCCC(=O)O)C[C@@H]3C2)NC(c2nccs2)=N[C@H]1c1cccc(F)c1Cl [Example 53, 4-[(8aS)-7-[[(4R)-4-(2-chloro-3-fluoro-phenyl)-5-ethoxycarbonyl-2-thiazol-2-yl-1,4-dihydropyrimidin-6-yl]methyl]-3-oxo-5,6,8,8a-tetrahydro-1H-imidazo[1,5-a]pyrazin-2-yl]butanoic acid]
[1]
  EC50: 19 nM
[2]
  solubility thermodynamic: > 723 µg/mL
[3]
  Human Microsomal Clearance: 5.1 mL/min/kg

## CCOC(=O)C1=C(CN2CCN3C(=O)N(CCCOCC(=O)O)CC3C2)NC(c2nccs2)=N[C@H]1c1cccc(F)c1Cl (stereo partly drawn) [Example 68, 2-[3-[7-[[(4R)-4-(2-chloro-3-fluoro-phenyl)-5-ethoxycarbonyl-2-thiazol-2-yl-1,4-dihydropyrimidin-6-yl]methyl]-3-oxo-5,6,8,8a-tetrahydro-1H-imidazo[1,5-a]pyrazin-2-yl]propoxy]acetic acid]
[1]
  EC50: 143 nM
[2]
  solubility thermodynamic: > 794 µg/mL
[3]
  Human Microsomal Clearance: 4.5 mL/min/kg

## CCOC(=O)C1=C(CN2CCN3C(=O)N(CC(OC)C(=O)O)C[C@@H]3C2)NC(c2nccs2)=N[C@H]1c1cccc(F)c1Cl (stereo partly drawn) [Example 78, 3-[(8aS)-7-[[(4R)-4-(2-chloro-3-fluoro-phenyl)-5-ethoxycarbonyl-2-thiazol-2-yl-1,4-dihydropyrimidin-6-yl]methyl]-3-oxo-5,6,8,8a-tetrahydro-1H-imidazo[1,5-a]pyrazin-2-yl]-2-methoxy-propanoic acid]
[1]
  EC50: 387 nM
[2]
  solubility thermodynamic: > 793 µg/mL
[3]
  Human Microsomal Clearance: 6.7 mL/min/kg

## CCOC(=O)C1=C(CN2CCN3C(=O)N(CC(C)C(=O)O)C[C@@H]3C2)NC(c2nccs2)=N[C@H]1c1ccccc1Cl (stereo partly drawn) [Example 20, 3-[(8aS)-7-[[(4R)-4-(2-chlorophenyl)-5-ethoxycarbonyl-2-thiazol-2-yl-1,4-dihydropyrimidin-6-yl]methyl]-3-oxo-5,6,8,8a-tetrahydro-1H-imidazo[1,5-a]pyrazin-2-yl]-2-methyl-propanoic acid]
[1]
  EC50: 52 nM
[2]
  solubility thermodynamic: > 780 µg/mL
[3]
  Human Microsomal Clearance: 0.1 mL/min/kg

## CCOC(=O)C1=C(CN2CCN3C(=O)N([C@@H]4CCCC4C(=O)O)C[C@@H]3C2)NC(c2nccs2)=N[C@H]1c1cccc(F)c1Cl (stereo in doubt) [Example 50, (1R,2R)-2-[(8aS)-7-[[(4R)-4-(2-chloro-3-fluoro-phenyl)-5-ethoxycarbonyl-2-thiazol-2-yl-1,4-dihydropyrimidin-6-yl]methyl]-3-oxo-5,6,8,8a-tetrahydro-1H-imidazo[1,5-a]pyrazin-2-yl]cyclopentanecarboxylic acid]
[1]
  EC50: 15 nM
[2]
  solubility thermodynamic: 339 µg/mL (≈ 537 µM)
[3]
  Human Microsomal Clearance: 3.6 mL/min/kg

## COC(=O)C1=C(CN2CCN3C(=O)N(C(C)C)C[C@H]3[C@@H]2C(=O)O)NC(c2nccs2)=N[C@H]1c1ccc(F)c(F)c1C (single isomer, unassigned) [Example 85A]
[1]
  EC50: 259 nM
[2]
  Lysa: > 660 µg/mL
[3]
  Human Microsomal Clearance: 4.9 mL/min/kg

## COC(=O)C1=C(CN2CCN3C(=O)N(CCCCC(=O)O)C[C@@H]3C2)NC(c2nccs2)=N[C@H]1c1ccc(F)cc1Cl [Example 80, 5-[(8aS)-7-[[(4R)-4-(2-chloro-4-fluoro-phenyl)-5-methoxycarbonyl-2-thiazol-2-yl-1,4-dihydropyrimidin-6-yl]methyl]-3-oxo-5,6,8,8a-tetrahydro-1H-imidazo[1,5-a]pyrazin-2-yl]pentanoic acid]
[1]
  EC50: 32 nM
[2]
  solubility thermodynamic: > 616 µg/mL
[3]
  Human Microsomal Clearance: 8.3 mL/min/kg

## CCOC(=O)C1=C(CN2CCN3C(=O)N(C4(CC(=O)O)CC4)CC3C2)NC(c2nccs2)=N[C@H]1c1cccc(F)c1Cl (stereo in doubt) [Example 48, 2-[1-[(8aR)-7-[[(4R)-4-(2-chloro-3-fluoro-phenyl)-5-ethoxycarbonyl-2-thiazol-2-yl-1,4-dihydropyrimidin-6-yl]methyl]-3-oxo-5,6,8,8a-tetrahydro-1H-imidazo[1,5-a]pyrazin-2-yl]cyclopropyl]acetic acid]
[1]
  EC50: 22 nM
[2]
  solubility thermodynamic: > 807 µg/mL
[3]
  Human Microsomal Clearance: 3.8 mL/min/kg

## CCOC(=O)C1=C(CN2CCN3C(=O)N(C4CC4)C[C@H]3[C@@H]2C(=O)O)NC(c2nccs2)=N[C@H]1c1cccc(F)c1Cl (single isomer, unassigned) [Example 82A]
[1]
  EC50: 145 nM
[3]
  Human Microsomal Clearance: 1.7 mL/min/kg

## COC(=O)C1=C(CN2CCN3C(=O)N([C@H]4C[C@H](C(=O)O)C4)C[C@@H]3C2)NC(c2nccs2)=N[C@H]1c1ccc(F)cc1Cl [Example 39, 3-[(2S,8aR)-7-[[(4R)-4-(2-chloro-4-fluoro-phenyl)-5-methoxycarbonyl-2-thiazol-2-yl-1,4-dihydropyrimidin-6-yl]methyl]-3-oxo-5,6,8,8a-tetrahydro-1H-imidazo[1,5-a]pyrazin-2-yl]cyclobutanecarboxylic acid]
[1]
  EC50: 30 nM
[2]
  solubility thermodynamic: > 770 µg/mL
[3]
  Human Microsomal Clearance: 0.4 mL/min/kg

## COC(=O)C1=C(CN2CCN3C(=O)OC(C)(C)[C@]3(CC(=O)O)C2)NC(c2nccs2)=N[C@H]1c1ccc(F)cc1Cl (single isomer, unassigned) [Example 90A]
[1]
  EC50: 96 nM
[3]
  Human Microsomal Clearance: 0.3 mL/min/kg
